# Target: T1, Nuclear factor erythroid 2-related factor 2 (Homo sapiens, UniProt Q16236)
# T1 sequence (Q16236 whole entry): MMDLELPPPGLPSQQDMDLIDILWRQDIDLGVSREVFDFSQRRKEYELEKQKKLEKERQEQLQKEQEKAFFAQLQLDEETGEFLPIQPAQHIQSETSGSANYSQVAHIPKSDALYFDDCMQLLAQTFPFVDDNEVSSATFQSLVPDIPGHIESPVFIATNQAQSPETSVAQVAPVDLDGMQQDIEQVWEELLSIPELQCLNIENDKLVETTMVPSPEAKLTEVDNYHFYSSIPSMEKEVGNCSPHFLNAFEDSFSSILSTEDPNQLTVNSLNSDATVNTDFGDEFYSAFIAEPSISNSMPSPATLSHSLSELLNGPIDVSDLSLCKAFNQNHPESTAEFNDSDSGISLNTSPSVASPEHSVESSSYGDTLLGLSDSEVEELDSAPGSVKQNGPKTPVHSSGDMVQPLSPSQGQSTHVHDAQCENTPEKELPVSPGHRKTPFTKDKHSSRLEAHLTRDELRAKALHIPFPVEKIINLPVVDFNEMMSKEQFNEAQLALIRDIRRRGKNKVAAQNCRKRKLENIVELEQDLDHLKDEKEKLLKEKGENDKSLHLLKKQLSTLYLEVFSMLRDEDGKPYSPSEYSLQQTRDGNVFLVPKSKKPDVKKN
# Experiment: Activation of ED-tagged Nrf2 in human U2OS cells co-expressing Keap1 assessed as induction of NRF2 translocation to nucleus after 6 hrs by beta-galactosidase based chemiluminescent assay
# Format: cell-based
structure (smiles),measurement,value
O=S(=O)(/C=C/c1ccccc1)Oc1ccccc1,EC50,1040 nM
